Columns and labels:
[1] = target: T1, Cytochrome P450 17A1 (steroid 17-alpha-hydroxylase/17,20 lyase) (Rattus norvegicus, UniProt P11715); assay: Inhibition Cytochrome P450 17A1 of rat testicular microsomes at 2.5 uM with 25 uM progesterone; conditions: probe progesterone (25 uM)
T1 sequence (P11715 whole entry): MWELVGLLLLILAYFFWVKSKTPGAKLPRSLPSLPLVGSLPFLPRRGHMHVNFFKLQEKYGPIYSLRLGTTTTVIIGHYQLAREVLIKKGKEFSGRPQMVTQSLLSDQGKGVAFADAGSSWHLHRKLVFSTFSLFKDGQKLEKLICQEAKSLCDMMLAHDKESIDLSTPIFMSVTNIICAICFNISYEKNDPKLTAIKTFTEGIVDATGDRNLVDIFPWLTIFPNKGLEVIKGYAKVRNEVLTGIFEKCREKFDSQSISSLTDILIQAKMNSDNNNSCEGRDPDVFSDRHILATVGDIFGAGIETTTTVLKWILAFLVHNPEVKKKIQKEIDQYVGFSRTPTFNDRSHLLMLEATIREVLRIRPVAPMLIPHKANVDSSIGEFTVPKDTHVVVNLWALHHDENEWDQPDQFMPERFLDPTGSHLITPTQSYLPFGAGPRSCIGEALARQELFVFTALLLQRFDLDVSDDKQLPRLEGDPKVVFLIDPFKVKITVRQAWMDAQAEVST

[2] = target: T2, Aromatase (Homo sapiens, UniProt P11511)
T2 sequence (P11511 whole entry): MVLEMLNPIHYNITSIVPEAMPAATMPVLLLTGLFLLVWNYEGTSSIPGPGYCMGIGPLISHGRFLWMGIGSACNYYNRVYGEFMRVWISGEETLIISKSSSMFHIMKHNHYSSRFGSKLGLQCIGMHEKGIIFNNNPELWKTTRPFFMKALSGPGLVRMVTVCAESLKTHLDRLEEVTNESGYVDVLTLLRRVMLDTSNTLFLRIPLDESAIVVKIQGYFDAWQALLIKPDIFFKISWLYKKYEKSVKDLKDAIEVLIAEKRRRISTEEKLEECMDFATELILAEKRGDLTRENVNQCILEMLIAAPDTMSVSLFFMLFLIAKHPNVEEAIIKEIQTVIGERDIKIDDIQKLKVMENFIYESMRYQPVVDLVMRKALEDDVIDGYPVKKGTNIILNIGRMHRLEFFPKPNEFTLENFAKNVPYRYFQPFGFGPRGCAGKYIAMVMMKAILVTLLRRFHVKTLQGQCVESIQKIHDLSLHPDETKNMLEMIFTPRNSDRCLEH
Description: Inhibition of cytochrome P450 19A1 of human placental microsomes with [1-beta,2beta-3H]testosterone

[3] = target: T2, Aromatase; assay: In vitro inhibition of cytochrome P450 19A1 from human placental microsomes with 2.5 uM [1-beta,2beta-3H]testosterone
[4] = target: T2, Aromatase; assay: Relative potency as IC50 compared to aminoglutethimide IC50=[…] uM

Row | Structure (SMILES) | inhibition at 2.5 µM [1] | IC50 [2] | IC50 [3] | Relative potency [4]
1 | CCN1CCc2cc(Cl)cc(C(c3ccc(F)cc3)n3ccnc3)c21 (stereo unspecified) | 23% | – | – | –
2 | CCN1CCc2cccc(C(c3cccc(Cl)c3)n3ccnc3)c21 (stereo unspecified) | 38% | – | – | –
3 | CCN1CCc2cc(Br)cc(C(c3ccc(F)cc3)n3ccnc3)c21 (stereo unspecified) | 8% | 90 nM | – | –
4 | CCN1CCc2cccc(C(c3ccc(F)cc3)n3ccnc3)c21 (stereo unspecified) | 37% | – | 61.5 nM | –
5 | CCN1CCc2cccc(C(c3ccc(F)cc3)n3cncn3)c21 (stereo unspecified) | – | 2900 nM | – | 10

Results, then the molecule that gave them:

Row | inhibition at 2.5 µM [1] | IC50 [2] | IC50 [3] | Relative potency [4] | Structure (SMILES)
6 | 37% | 62 nM | – | – | CCn1ccc2cccc(C(c3ccc(F)cc3)n3ccnc3)c21 (stereo unspecified)
7 | 29% | – | – | – | CCn1ccc2cccc(C(c3ccc(Cl)cc3)n3ccnc3)c21 (stereo unspecified)
8 | 29% | 70 nM | – | – | CCn1ccc2cccc(C(c3ccc(Br)cc3)n3ccnc3)c21 (stereo unspecified)
9 | 43% | – | – | – | CCn1ccc2cccc(C(c3cccc(Cl)c3)n3ccnc3)c21 (stereo unspecified)
10 | 9% | 200 nM | – | – | CCn1ccc2cc(Br)cc(C(c3ccc(F)cc3)n3ccnc3)c21 (stereo unspecified)
